Data: article PMC7898037, “Improving mitochondria and ER stability helps eliminate upper motor neuron degeneration that occurs due to mSOD1 toxicity and TDP‐43 pathology” (Clinical and Translational Medicine, 2021)

Assays:
[1] = Weight of the mice; format: in vivo; parameters: Mean Diff. of weight, vehicle vs. NU-9: unit not given here; settings: for Mean weight (Mean 2): hSOD1G93A-UeGFP mice, in g (unit assumed); for Weight, Average: hSOD1G93A-UeGFP
Protocol: (§1) hSOD1^G93A‐UeGFP, prpTDP‐43^A315T‐UeGFP and WT‐UeGFP mice were weighed and the required NU‐9 dose per weight was calculated (20 or 100 mg/kg), which was administered once daily by oral gavage, starting at postnatal day (P)60 and continuing until P120. Animals from the untreated group received the vehicle (NMP and olive oil) only. For oral administration purposes, 20 ga × 38 mm plastic feeding tubes were used (Instech Laboratories, Inc). The gavage tip was inserted into the mouth directly over the tongue and into the pharynx. While observing the swallowing reflex, the tip was safely and smoothly slid into the esophagus. Once the administration was completed, the gavage tip was pulled straight out.
Behavior data were collected from hSOD1^G93A‐UeGFP and WT‐UeGFP mice (starting at P60 and every 7 days until P116) and from prpTDP‐43^A315T‐UeGFP mice (at P60, P90, and P120) with the following number of mice for each group: WT‐UeGFP vehicle (n = 10), hSOD1^G93A‐UeGFP vehicle (n = 6), WT‐UeGFP 20 mg/kg/day NU‐9 (n = 5), hSOD1^G93A‐UeGFP 20 mg/kg/day NU‐9 (n = 7), WT‐UeGFP 100 mg/kg/day NU‐9 (n = 11), hSOD1^G93A‐UeGFP 100 mg/kg/day NU‐9 (n = 9), prpTDP‐43^A315T‐UeGFP untreated (n ≥ 3), and prpTDP‐43^A315T‐UeGFP 100 mg/kg/day NU‐9 (n = 4) (Table S3).

[2] = system: LMNs in the lumbar spinal cord of hSOD1^G93A‐UeGFP mice; assay: Lower motor neuron (LMN) quantification in lumbar spinal cord, hSOD1^G93A‐UeGFP mice; format: in vivo; settings: for Mean, Fig. 8E (LMN quantification in lumbar spinal cord) / Mean, Fig. 8F (LMN quantification in lumbar spinal cord) / Mean, Fig. 8G (LMN quantification in lumbar spinal cord): hSOD1G93A-UeGFP mice; for number of LMNs per section, lumbar spinal cord / number of NeuN^+/ChAT^+ LMNs (vulnerable to degeneration): hSOD1^G93A‐UeGFP mice, P120
Protocol: as §1
A 5‐mm block of lumbar spinal cord was sectioned in 50‐µm thick sections with a vibratome (Leica), and every other section was used for immunohistochemical analysis. LMNs were identified based on their location in the ventral horn and expression of the molecular marker ChAT. 10× Images were captured using an inverted epifluorescent Eclipse TE2000‐E microscope (Nikon). GFP^+/ChAT^+ and NeuN^+/ChAT^+ LMNs were quantified per section. The average number of LMNs per section is reported per mouse with n = 5 mice per group.

[3] = hSOD1G93A-UeGFP vehicle minus NU-9 20 mg/kg/day, Tukey's multiple comparisons test
[4] = hSOD1G93A-UeGFP vehicle minus NU-9 100 mg/kg/day, Tukey's multiple comparisons test

SMILES: C[C@H](Oc1cc(C(F)(F)F)cc(C(F)(F)F)c1)C1CC(=O)CC(=O)C1 [NU‐9]
- Mean Diff. of weight, vehicle vs. NU-9 ([1]; hSOD1G93A-UeGFP (vehicle) vs. hSOD1G93A-UeGFP (NU-9 20 mg/kg/day), P116, Tukey's multiple comparisons test): -0.1429
- Mean Diff. of weight, vehicle vs. NU-9 ([1]; hSOD1G93A-UeGFP (vehicle) vs. hSOD1G93A-UeGFP (NU-9 100 mg/kg/day), P60, Tukey's multiple comparisons test): 1.222
- Mean Diff. of weight, vehicle vs. NU-9 ([1]; hSOD1G93A-UeGFP (vehicle) vs. hSOD1G93A-UeGFP (NU-9 100 mg/kg/day), P67, Tukey's multiple comparisons test): 1.167
- Mean Diff. of weight, vehicle vs. NU-9 ([1]; hSOD1G93A-UeGFP (vehicle) vs. hSOD1G93A-UeGFP (NU-9 100 mg/kg/day), P74, Tukey's multiple comparisons test): 0.2222
- Mean Diff. of weight, vehicle vs. NU-9 ([1]; hSOD1G93A-UeGFP (vehicle) vs. hSOD1G93A-UeGFP (NU-9 100 mg/kg/day), P81, Tukey's multiple comparisons test): 0.7222
- Mean Diff. of weight, vehicle vs. NU-9 ([1]; hSOD1G93A-UeGFP (vehicle) vs. hSOD1G93A-UeGFP (NU-9 100 mg/kg/day), P88, Tukey's multiple comparisons test): 0.1111
- Mean Diff. of weight, vehicle vs. NU-9 ([1]; hSOD1G93A-UeGFP (vehicle) vs. hSOD1G93A-UeGFP (NU-9 100 mg/kg/day), P95, Tukey's multiple comparisons test): 0.1111
- Mean Diff. of weight, vehicle vs. NU-9 ([1]; hSOD1G93A-UeGFP (vehicle) vs. hSOD1G93A-UeGFP (NU-9 100 mg/kg/day), P102, Tukey's multiple comparisons test): 0
- Mean Diff. of weight, vehicle vs. NU-9 ([1]; hSOD1G93A-UeGFP (vehicle) vs. hSOD1G93A-UeGFP (NU-9 100 mg/kg/day), P109, Tukey's multiple comparisons test): 0.5556
- Mean Diff. of weight, vehicle vs. NU-9 ([1]; hSOD1G93A-UeGFP (vehicle) vs. hSOD1G93A-UeGFP (NU-9 100 mg/kg/day), P116, Tukey's multiple comparisons test): 0.1111
- Mean weight (Mean 2) ([1]; NU-9 20 mg/kg/day, P60): 17
- Mean weight (Mean 2) ([1]; NU-9 20 mg/kg/day, P67): 16.86
- Mean weight (Mean 2) ([1]; NU-9 20 mg/kg/day, P74): 16.43
- Mean weight (Mean 2) ([1]; NU-9 20 mg/kg/day, P81): 16.57
- Mean weight (Mean 2) ([1]; NU-9 20 mg/kg/day, P88): 16.71
- Mean weight (Mean 2) ([1]; NU-9 20 mg/kg/day, P95): 16.57
- Mean weight (Mean 2) ([1]; NU-9 100 mg/kg/day, P60): 16.44
- Mean weight (Mean 2) ([1]; NU-9 100 mg/kg/day, P67): 16.33
- Mean weight (Mean 2) ([1]; NU-9 100 mg/kg/day, P74): 16.44
- Mean weight (Mean 2) ([1]; NU-9 100 mg/kg/day, P81): 16.44
- Mean weight (Mean 2) ([1]; NU-9 100 mg/kg/day, P88): 16.89
- Mean weight (Mean 2) ([1]; NU-9 100 mg/kg/day, P95): 17.22
- Weight, Average ([1]; NU-9 20 mg/kg/day po, P60): 17 g
- Weight, Average ([1]; NU-9 20 mg/kg/day po, P67): 16.8571 g
- Weight, Average ([1]; NU-9 20 mg/kg/day po, P74): 16.4286 g
- Weight, Average ([1]; NU-9 20 mg/kg/day po, P81): 16.5714 g
- Weight, Average ([1]; NU-9 20 mg/kg/day po, P88): 16.7143 g
- Weight, Average ([1]; NU-9 20 mg/kg/day po, P95): 16.5714 g
- Weight, Average ([1]; NU-9 20 mg/kg/day po, P102): 16.4286 g
- Weight, Average ([1]; NU-9 20 mg/kg/day po, P109): 16.8571 g
- Weight, Average ([1]; NU-9 20 mg/kg/day po, P116): 17.1429 g
- Weight, Average ([1]; NU-9 100 mg/kg/day po, P60): 16.4444 g
- Weight, Average ([1]; NU-9 100 mg/kg/day po, P67): 16.3333 g
- Weight, Average ([1]; NU-9 100 mg/kg/day po, P74): 16.4444 g
- Weight, Average ([1]; NU-9 100 mg/kg/day po, P81): 16.4444 g
- Weight, Average ([1]; NU-9 100 mg/kg/day po, P88): 16.8889 g
- Weight, Average ([1]; NU-9 100 mg/kg/day po, P95): 17.2222 g
- Weight, Average ([1]; NU-9 100 mg/kg/day po, P102): 17 g
- Weight, Average ([1]; NU-9 100 mg/kg/day po, P109): 16.7778 g
- Weight, Average ([1]; NU-9 100 mg/kg/day po, P116): 16.8889 g
- Mean, Fig. 8E (LMN quantification in lumbar spinal cord) ([2]; NU-9 20 mg/kg/day): 12.11
- Mean, Fig. 8F (LMN quantification in lumbar spinal cord) ([2]; NU-9 20 mg/kg/day): 6.506
- Mean, Fig. 8G (LMN quantification in lumbar spinal cord) ([2]; NU-9 20 mg/kg/day): 18.62
- Mean, Fig. 8E (LMN quantification in lumbar spinal cord) ([2]; NU-9 100 mg/kg/day): 9.708
- Mean, Fig. 8F (LMN quantification in lumbar spinal cord) ([2]; NU-9 100 mg/kg/day): 4.426
- Mean, Fig. 8G (LMN quantification in lumbar spinal cord) ([2]; NU-9 100 mg/kg/day): 14.13
- Mean Diff., Fig. 8E, GS Vehicle vs. GS NU-9 (20) [2, 3]: -1.853
- Mean Diff., Fig. 8F, GS Vehicle vs. GS NU-9 (20) [2, 3]: 0.3602
- Mean Diff., Fig. 8G, GS Vehicle vs. GS NU-9 (20) [2, 3]: -1.493
- Mean Diff., Fig. 8E, GS Vehicle vs. GS NU-9 (100) [2, 4]: 0.5524
- Mean Diff., Fig. 8F, GS Vehicle vs. GS NU-9 (100) [2, 4]: 2.44
- Mean Diff., Fig. 8G, GS Vehicle vs. GS NU-9 (100) [2, 4]: 2.992
- number of LMNs per section, lumbar spinal cord ([2]; 20 mg/kg/day): 18.6 ± 0.4 LMN
- number of NeuN^+/ChAT^+ LMNs (vulnerable to degeneration) ([2]; 20 mg/kg/day): 12.1 ± 0.4 LMN
- number of LMNs per section, lumbar spinal cord ([2]; 100 mg/kg/day): 14.1 ± 1.3 LMN
- number of NeuN^+/ChAT^+ LMNs (vulnerable to degeneration) ([2]; 100 mg/kg/day): 9.7 ± 0.9 LMN
- numbers of GFP^+ and ChAT^+ LMN (resistant to degeneration) ([2]; regardless of genotype or treatment): comparable
